Data reported in the supplement of paper PMC10307832.

How the values were obtained:
Experiment in all cases: relative viability (nuclei count vs DMSO), 5 days (fraction); higher = more cells survive
[1] = compound: COC1=C(C=C(C=C1)C2=CC3=NC=CN3C(=N2)NC4=C(C=CC=N4)C(=O)N)OC [BAY61-3606] + CC(=O)Nc1cccc(-n2c(=O)n(C3CC3)c(=O)c3c(Nc4ccc(I)cc4F)n(C)c(=O)c(C)c32)c1 [Trametinib] (partner 0.02 µM)
Outline: (§1)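 Relative viability was taken as the ratio of nuclei in treated wells to nuclei in vehicle wells. Lung cancer cell lines in 1536-well plates received compounds by pin tool one day after seeding, either one drug alone or a fixed anchor-drug dose plus five library-drug doses (not always all listed) in √10 steps. Nuclei were counted on 4× images after 5 days of treatment, and values are medians of duplicate plates.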

[2] = compound: COC1=C(C=C(C=C1)C2=CC3=NC=CN3C(=N2)NC4=C(C=CC=N4)C(=O)N)OC [BAY61-3606] + CS(=O)(=O)N1CCN(Cc2cc3nc(-c4cccc5[nH]ncc45)nc(N4CCOCC4)c3s2)CC1 [Pictilisib] (partner 1 µM)
Outline: as §1

[3] = compound: COC1=C(C=C(C=C1)C2=CC3=NC=CN3C(=N2)NC4=C(C=CC=N4)C(=O)N)OC [BAY61-3606] + NC(=O)Nc1cc(-c2cccc(F)c2)sc1C(=O)N[C@H]1CCCNC1 [AZD7762] (partner 0.2 µM)
Outline: as §1

[4] = compound: COc1cccc2c1C(=O)c1c(O)c3c(c(O)c1C2=O)C[C@@](O)(C(=O)CO)C[C@@H]3O[C@H]1C[C@H](N)[C@H](O)[C@H](C)O1 [Doxorubicin] + N=C(N)NC(=N)NCCc1ccccc1 [Phenformin] (partner 250 µM)
Outline: as §1

Cell Line	relative viability ([1]; first compound 0.02 µM)	relative viability ([1]; first compound 0.06325 µM)	relative viability ([1]; first compound 0.2 µM)	relative viability ([1]; first compound 0.6325 µM)	relative viability ([1]; first compound 2 µM)	relative viability ([2]; first compound 0.02 µM)	relative viability ([2]; first compound 0.06325 µM)	relative viability ([2]; first compound 0.2 µM)	relative viability ([2]; first compound 0.6325 µM)	relative viability ([2]; first compound 2 µM)	relative viability ([3]; first compound 0.02 µM)	relative viability ([3]; first compound 0.06325 µM)	relative viability ([3]; first compound 0.2 µM)	relative viability ([3]; first compound 0.6325 µM)	relative viability ([3]; first compound 2 µM)	relative viability ([4]; first compound 0.001 µM)	relative viability ([4]; first compound 0.003162 µM)	relative viability ([4]; first compound 0.01 µM)	relative viability ([4]; first compound 0.03162 µM)	relative viability ([4]; first compound 0.1 µM)
NCI-H460	0.153	0.173	0.134	0.117	0.104	0.433	0.353	0.319	0.35	0.377	0.63	0.646	0.739	0.631	0.766	0.435	0.449	0.179	0.0505	0.0155
NCI-H2126	0.622	0.539	0.514	0.567	0.57	0.543	0.503	0.492	0.51	0.447	1.06	1.09	0.999	1.02	0.954	0.556	0.531	0.475	0.299	0.273
LCLC-103H	0.708	0.715	0.666	0.654	0.65	0.646	0.737	0.654	0.542	0.646	0.762	0.704	0.836	0.758	0.769	0.341	0.37	0.345	0.293	0.354
NCI-H1975	0.409	0.295	0.354	0.325	0.254	0.354	0.238	0.253	0.262	0.19	0.706	0.603	0.621	0.654	0.348	0.397	0.422	0.383	0.219	0.179
NCI-H1944	0.469	0.392	0.405	0.369	0.299	0.384	0.346	0.337	0.326	0.281	0.477	0.533	0.635	0.592	0.485	0.182	0.224	0.206	0.177	0.172
NCI-H2085	0.666	0.45	0.511	0.59	0.42	0.376	0.487	0.499	0.459	0.601	1.01	1.08	0.969	1.1	0.942	0.733	0.709	0.653	0.545	0.478
NCI-H23	0.437	0.347	0.348	0.393	0.372	0.743	0.522	0.49	0.522	0.382	0.227	0.192	0.251	0.265	0.224		0.84	0.806	0.58	0.486
PC-14	0.732	0.887	0.732	1.01	0.607	0.647	0.605	0.654	0.994	0.589	0.418	0.268	0.35	0.32	0.342	0.421	0.629	0.709	0.284	0.213
NCI-H2087	0.228	0.196	0.202	0.178	0.2	1.05	0.937	0.865	0.878	0.666	1.31	1.43	1.35	1.23	0.959		0.45	0.405	0.273	0.247
NCI-H1755	0.768	0.853	0.792	0.769	0.762	0.532	0.35	0.463	0.415	0.385	0.439	0.483	0.462	0.422	0.59	0.612	0.642	0.618	0.675	0.626
EMC-BAC-2	0.938	0.883	0.944	1.17	1.05	0.602	0.522	0.47	0.632	0.527	1.12	0.888	1.1	1.32	1.12	0.621	0.462	0.416	0.265	0.206
NCI-H838	0.54	0.496	0.547	0.575	0.362	0.568	0.432	0.601	0.523	0.324	1.06	0.847	0.954	0.908	0.895	0.502	0.607	0.556	0.346	0.19
NCI-H1915	0.35	0.29	0.325	0.315	0.246	0.999	0.99	0.739	0.884	0.685	0.658	0.708	0.641	0.659	0.66	0.354	0.355	0.367	0.375	0.353
NCI-H441	0.491	0.417	0.363	0.483	0.371	0.561	0.529	0.493	0.475	0.282	1.21	1.29	1.04	1.3	0.974		0.682	0.438	0.218	0.245
ChaGo-K-1	0.947	0.893	0.921	0.872	0.939	0.897	0.591	0.708	0.506	0.696	0.943	0.904	0.9	0.847	0.841	0.438	0.522	0.503	0.363	0.223
